Earlier results as cited in patent US20140012157A1, “Monobody Sensors for Monitoring Neuromuscular Blockade” (priority 2007, published 2014).

Tests used:
[1] = manufacturer's recommended intubation dose
[2] = PTC of 1 measured; from t=18.8−6.46√PTC
[3] = tested on: isolated cat anterior tibialis and sartorius muscles

Row | SMILES | 2×ED 95 dose (double the dose that is effective for 95% of the population) [1] | time until return of the TOF [2] | receptors that had to be blocked by the antagonist before block was noticeable [3] | receptors that had to be blocked for near complete blockade [3]
1 | C=CC[N+]1([C@H]2C[C@H]3[C@@H]4CC[C@H]5C[C@H](O)[C@@H](N6CCOCC6)C[C@]5(C)[C@H]4CC[C@]3(C)[C@H]2OC(C)=O)CCCC1 [rocuronium] | 0.6 mg/kg | 12.34 min |  | 
2 | COc1cc2c3cc1Oc1cc(ccc1O)C[C@@H]1c4c(cc(OC)c(O)c4Oc4ccc(cc4)C[C@@H]3N(C)CC2)CC[N+]1(C)C [tubocurarine] |  |  | 76% | 92%
